Test results from the supplement of paper PMC10307832.

Columns and labels:
Experiment in all cases: relative viability (nuclei count vs DMSO), 5 days (fraction); higher = more cells survive
Irinotecan + Luminespib = compound: CCc1c2c(nc3ccc(OC(=O)N4CCC(N5CCCCC5)CC4)cc13)-c1cc3c(c(=O)n1C2)COC(=O)[C@]3(O)CC [Irinotecan] + CCNC(=O)c1noc(-c2cc(C(C)C)c(O)cc2O)c1-c1ccc(CN2CCOCC2)cc1 [Luminespib] (partner 0.01 µM)
Outline: (§1)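 Cells from lung cancer lines were seeded into 1536-well plates and, one day later, dosed by pin tool. Treatments were either a single drug or a fixed dose of an anchor drug with five library-drug doses (not always all listed) in √10 steps. After 5 days, nuclei were stained in a one-step fixation (final 0.05% Triton X-100, 1% formaldehyde, 1 ug/ml Hoechst) and counted on 4× images, and relative viability is the treated-to-vehicle nuclei ratio, as the median of duplicate plates.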

MK-8033 + Phenformin = compound: Cn1cc(-c2cnc3ccc4ccc(CS(=O)(=O)NCc5ccccn5)cc4c(=O)c3c2)cn1 [MK-8033] + N=C(N)NC(=N)NCCc1ccccc1 [Phenformin] (partner 250 µM)
Outline: as §1

MK-8033 + Crizotinib = compound: Cn1cc(-c2cnc3ccc4ccc(CS(=O)(=O)NCc5ccccn5)cc4c(=O)c3c2)cn1 [MK-8033] + C[C@@H](Oc1cc(-c2cnn(C3CCNCC3)c2)cnc1N)c1c(Cl)ccc(F)c1Cl [Crizotinib] (partner 1 µM)
Outline: as §1

MK-8033 + Luminespib = compound: Cn1cc(-c2cnc3ccc4ccc(CS(=O)(=O)NCc5ccccn5)cc4c(=O)c3c2)cn1 [MK-8033] + CCNC(=O)c1noc(-c2cc(C(C)C)c(O)cc2O)c1-c1ccc(CN2CCOCC2)cc1 [Luminespib] (partner 0.01 µM)
Outline: as §1

Cell Line	relative viability (Irinotecan + Luminespib; first compound 0.6325 µM)	relative viability (Irinotecan + Luminespib; first compound 2 µM)	relative viability (Irinotecan + Luminespib; first compound 6.325 µM)	relative viability (Irinotecan + Luminespib; first compound 20 µM)	relative viability (MK-8033 + Phenformin; first compound 0.02 µM)	relative viability (MK-8033 + Phenformin; first compound 0.06325 µM)	relative viability (MK-8033 + Phenformin; first compound 0.2 µM)	relative viability (MK-8033 + Phenformin; first compound 0.6325 µM)	relative viability (MK-8033 + Phenformin; first compound 2 µM)	relative viability (MK-8033 + Crizotinib; first compound 0.02 µM)	relative viability (MK-8033 + Crizotinib; first compound 0.06325 µM)	relative viability (MK-8033 + Crizotinib; first compound 0.2 µM)	relative viability (MK-8033 + Crizotinib; first compound 0.6325 µM)	relative viability (MK-8033 + Crizotinib; first compound 2 µM)	relative viability (MK-8033 + Luminespib; first compound 0.02 µM)	relative viability (MK-8033 + Luminespib; first compound 0.06325 µM)	relative viability (MK-8033 + Luminespib; first compound 0.2 µM)	relative viability (MK-8033 + Luminespib; first compound 0.6325 µM)	relative viability (MK-8033 + Luminespib; first compound 2 µM)
NCI-H1563	0.608	0.269	0.497	0.524	0.711	0.669	0.602	0.679	0.642	0.918	0.813	0.773	0.93	0.812	0.491	0.589	0.541	0.483	0.539
NCI-H2170	0.601	0.498	0.168	0.188	0.447	0.424	0.374	0.407	0.399	1.08	1.18	1.05	1.18	1.18	0.435	0.388	0.694	0.622	0.726
NCI-H1975	0.107	0.201	0.175	0.235	0.409	0.417	0.405		0.364	0.896	0.924	0.934	1.06	0.952	0.195	0.24	0.176	0.203	0.15
NCI-H1437	0.955	0.723	0.4	0.338	0.293	0.291	0.291	0.324	0.267	1.04	0.723	0.545	0.877	0.918	1.11	1	1.05	1.08	1.04
A-427		0.574	0.306	0.166	0.308	0.371	0.289	0.325	0.374	0.933	0.734	0.824	0.88	0.865	0.85	0.85	0.83	0.88	0.91
NCI-H2405		0.606	0.312	0.262	0.406	0.348	0.403	0.377	0.367	0.809	0.783	0.842	0.871	0.811	0.711	0.614	0.65	0.64	0.814
SK-MES-1	0.818	0.521	0.324	0.234	0.67	0.622	0.634	0.719	0.671	0.96	0.959	0.919	1.01	0.992	0.628	0.728	0.722	0.908	0.823
LC-2-ad	0.685	0.542	0.337	0.233	0.605	0.515		0.592	0.589	0.423	0.347	0.393	0.447	0.445	1.04	0.97		1.08	0.878
NCI-H1944	0.557	0.312	0.167	0.149	0.186	0.159	0.19	0.198	0.181	1.12		1.02	1.06	1.11	0.742	0.62	0.708	0.719	0.653
NCI-H322M	0.844	0.777	0.529	0.181	0.779	0.662	0.698	0.936	0.749	0.855	0.778	0.835	0.939	0.954	0.85	0.85	0.78	0.873	0.842
HCC-44		0.456	0.215	0.225	0.209	0.181	0.22	0.252	0.208	0.808	0.732	0.755	0.746	0.756	1.06	1.02	1.01	1.3	1.05
HCC-827	0.289	0.501	0.165	0.104	0.407		0.397	0.424	0.393	0.925		0.955	0.874	0.885	0.43		0.591	0.59	1.07
SW 1573	0.232	0.269	0.195	0.148	0.374	0.311	0.367	0.326	0.249	0.798	0.743	0.752	0.416	0.695	0.178	0.206	0.719	0.366	0.185
NCI-H23	0.228	0.394	0.332	0.241	0.795	0.81	0.715	0.857	0.814	0.446	0.391	0.487	0.468	0.552	0.245	0.216		0.204	0.198
EMC-BAC-2	0.681	0.407	0.347	0.375	0.554	0.509	0.531	0.556	0.494	0.76	0.77	0.718	0.783	0.701	1.2	1.07	1.12	1.16	1.12
EPLC-272H	0.203	0.368	0.287	0.281	0.347	0.228	0.359	0.325	0.331	1.09		0.88	0.843	0.866	0.214	0.339	0.282	0.218	0.475
EKVX	0.81	0.667	0.379	0.154	0.222	0.211	0.238	0.22	0.254	0.966	0.735	0.799	0.908	0.601	0.888	0.905	0.814	0.889	0.842
